Measurements as given in PubChem BioAssay AID493142 (Sanford-Burnham Center for Chemical Genomics, 2011).
Several values for one entry are separate records, joined by “and”; a condition that tells them apart may be missing. Equal entries are not always repeated. Activity calls are given as the source filed them.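 How the source made its calls: active means mean IC50 below 100 µM; inactive means the rest.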

biological target: Intestinal alkaline phosphatase (Alpi) [Mus musculus]; experiment: mouse IAP inhibition by analogs, SAR follow-up, selectivity assay for human IAP inhibitor project, biochemical, ortholog specificity, luminescence (AID 493142); settings: Purified mouse IAP, CDP-Star luminescence, 30 min

Compound | IC50
N#CCCn1cc(/C=N/N=C2/NC(=O)C(CC(=O)O)S2)c(-c2ccc(F)cc2)n1 (stereo unspecified) | > 100 µM (inactive)
COC(=O)/C=C1\S/C(=N/N=C/CC(=O)OC)NC1=O | > 100 µM (inactive)
Cc1cccc(NC(=S)NN=Cc2ccc3c(c2)OCO3)c1 | > 100 µM (inactive)
COC(=O)C/C=N/N=C1\NC(=O)/C(=C/C(=O)O)S1 | > 100 µM (inactive)
Cn1c(=S)n(N=Cc2ccc3c(c2)OCO3)c2ccccc21 | > 100 µM (inactive)
O=C(O)CC1S/C(=N/N=C/c2ccco2)NC1=O (stereo unspecified) | > 100 µM (inactive)
COC(=O)/C=C1/S/C(=N/N=Cc2ccc(N(C)C)cc2)NC1=O | > 100 µM (inactive)
COC(=O)/C=C1/S/C(=N/NC(=O)c2ccc(Cl)cc2Cl)NC1=O | > 100 µM (inactive)
COC(=O)/C=C1\S/C(=N/N=C/c2ccc(Cl)cc2)NC1=O | > 100 µM (inactive)
CCOc1cc(C=NNC(=S)NC2CCCCC2)ccc1O | > 100 µM (inactive)
COC(=O)/C=C1/S/C(=N/NC(=O)c2ccc(OC)cc2)NC1=O | > 100 µM (inactive)
CCOc1cc(C=N/N=C2/NC(=O)C(CC(=O)O)S2)ccc1OCc1ccccc1Cl (stereo unspecified) | > 100 µM (inactive)
COc1cc(/C=N/N=C2\NC(=O)C(CC(=O)O)S2)cc(OC)c1OC (stereo unspecified) | > 100 µM (inactive)
CC(C)(C)c1ccc(/C=N/N=C2\NC(=O)C(CC(=O)O)S2)cc1 (stereo unspecified) | > 100 µM (inactive)
O=[N+]([O-])c1ccc(NC(=S)NCCC(c2ccccc2)c2ccccc2)cc1 | > 100 µM (inactive)
COc1ccc(C(=O)NNC(=S)NC2CCCCC2)cc1OC | 88.1 µM

Compound | IC50
S=C(NCCC(c1ccccc1)c1ccccc1)Nc1ccc(Cl)cc1Cl | > 100 µM (inactive)
COc1cc([N+](=O)[O-])ccc1NC(=S)NCCC(c1ccccc1)c1ccccc1 | > 100 µM (inactive)
CC(=NNC(=S)Nc1ccccc1)c1ccc2c(c1)OCO2 | > 100 µM (inactive)
Cc1ccc(-c2ccc(/C=N/N=C3\NC(=O)C(CC(=O)O)S3)o2)c([N+](=O)[O-])c1 (stereo unspecified) | > 100 µM (inactive)
COc1cc([N+](=O)[O-])ccc1NC(=S)NNC(=O)c1ccc2c(c1)OCO2 | 95.4 µM
COc1ccc(NC(=S)NCCC(c2ccccc2)c2ccccc2)cc1 | > 100 µM (inactive)
COc1ccc(/C=N/N=C2\NC(=O)C(CC(=O)O)S2)c(OC)c1 (stereo unspecified) | > 100 µM (inactive)
COC(=O)/C=C1/S/C(=N/NC(=O)c2ccccc2OC)NC1=O | > 100 µM (inactive)
FC(F)(F)c1cccc(NC(=S)NCCC(c2ccccc2)c2ccccc2)c1 | > 100 µM (inactive)
COc1ccc(/C=N/N=C2/NC(=O)C(CC(=O)O)S2)cc1OC (stereo unspecified) | > 100 µM (inactive)
COc1ccc(C=Nn2c(=S)n(C)c3ccccc32)cc1OC | > 100 µM (inactive)
COC(=O)/C=C1/S/C(=N/NC(=O)c2ccccc2)NC1=O | > 100 µM (inactive)
COC(=O)/C=C1/S/C(=N/NC(=O)c2ccccc2C)NC1=O | > 100 µM (inactive)
COC(=O)/C=C1\SC(N=Nc2c(O)[nH]c3ccccc23)=NC1=O | > 100 µM (inactive)
CCOc1cc(/C=N/N=C2\NC(=O)C(CC(=O)O)S2)ccc1O (stereo unspecified) | > 100 µM (inactive)

The remaining lines, values ahead:

IC50 | Compound
> 100 µM (inactive) | Cc1ccc2sc(NNC(=O)c3ccc4c(c3)OCCO4)nc2c1C
3.85 µM | Cc1ccc(Cl)cc1Nc1nc(-c2ccc(O)c(O)c2)cs1
6.64 µM | Cc1ccc(Nc2nc(-c3ccc(O)c(O)c3)cs2)cc1
> 100 µM (inactive) | Cc1ccc(C)c(Nc2nc(-c3ccc(O)cc3O)cs2)c1
5.59 µM | Oc1ccc(-c2csc(Nc3ccc(F)cc3)n2)cc1O
> 100 µM (inactive) | Oc1ccc(-c2csc(Nc3ccccc3)n2)c(O)c1
> 100 µM (inactive) | Cc1ccc(Nc2nc(-c3ccc(O)c(C(N)=O)c3)cs2)cc1
> 100 µM (inactive) | Cc1ccc(Nc2nc(-c3ccc(O)cc3O)cs2)cc1
> 100 µM (inactive) | COc1ccc(C=NN=C2SC(CC(=O)O)C(=O)N2c2ccc(O)cc2)cc1 (stereo unspecified)
58.3 µM | Cc1cccc(C)c1NC(=S)N/N=C/c1ccc(O)c(O)c1O
7.77 µM | Cc1cccc(Nc2nc(-c3ccc(O)c(O)c3)cs2)c1
> 100 µM (inactive) | Cc1cccc(Nc2nc(-c3ccc(O)c(C(N)=O)c3)cs2)c1
1.4 µM | Oc1ccc(Nc2nc(-c3ccc(O)c(O)c3)cs2)cc1
2.11 µM | NS(=O)(=O)c1ccc(Nc2nc(-c3ccc(O)c(O)c3)cs2)cc1
> 100 µM (inactive) | COc1cc(/C=N/N=C2/SCC(=O)N2c2ccc(O)cc2)ccc1O
> 100 µM (inactive) | COc1cc(C=NN=C2SC(CC(=O)O)C(=O)N2c2ccc(O)cc2)ccc1O (stereo unspecified)
57.7 µM | Cc1ccc2nc(NNC(=O)c3ccc4c(c3)OCCO4)sc2c1
27.6 µM | CN(C)S(=O)(=O)c1cccc(NC(=S)NN=Cc2ccc(O)c(O)c2O)c1
> 100 µM (inactive) | COc1ccc(-c2csc(Nc3cccc4ccccc34)n2)cc1
5.47 µM and 4.15 µM | CCc1ccccc1Nc1nc(-c2ccc(O)c(O)c2)cs1
> 100 µM (inactive) | CCN(CC)S(=O)(=O)c1ccc(-c2csc(=Nc3cccc4ccccc34)n2C)cc1
6.64 µM | O=[N+]([O-])c1ccccc1NC(=S)NN=Cc1ccc(O)c(O)c1
> 100 µM (inactive) | COc1cc(C=NNC(=S)Nc2cccc(S(=O)(=O)N(C)C)c2)cc(OC)c1O

IC50 | Compound
2.72 µM and 5.26 µM | Oc1ccc(-c2csc(Nc3cccc4ccccc34)n2)cc1O
> 100 µM (inactive) | COc1ccc(-c2csc(Nc3cccc4ccccc34)n2)cc1F
> 100 µM (inactive) | COc1cc(C=NNC(=S)Nc2cccc(S(=O)(=O)N(C)C)c2)ccc1O
> 100 µM (inactive) | COc1cc(C=NNC(=S)Nc2cccc(C(=O)O)c2)ccc1O
58.5 µM | Cc1cccc(NC(=S)NNC(=O)c2ccc3c(c2)OCO3)c1
> 100 µM (inactive) | Cc1ccc(Nc2nc(-c3ccc(O)cc3O)cs2)cc1C
> 100 µM (inactive) | COc1cccc(Nc2nc(-c3ccc(O)cc3)cs2)c1
> 100 µM (inactive) | Cc1cc(=O)oc2cc(NC(=S)NCCC(c3ccccc3)c3ccccc3)ccc12
76 µM | Cc1cccc2sc(NNC(=O)c3ccc4c(c3)OCCO4)nc12
9.66 µM | Cc1ccc(Nc2nc(-c3ccc(O)c(O)c3)cs2)cc1F
> 100 µM (inactive) | Cc1ccc(Nc2nc(-c3ccc(O)cc3O)cs2)cc1F
80.8 µM | O=S(=O)(c1ccc(NC(=S)N/N=C/c2ccc(O)c(O)c2O)cc1)N1CCOCC1
1.02 µM | O=S(=O)(c1ccc(NC(=S)N/N=C/c2ccc(O)c(O)c2)cc1)N1CCOCC1
> 100 µM (inactive) | O=S(=O)(Nc1ncccn1)c1ccc(NC(=S)NCCC(c2ccccc2)c2ccccc2)cc1
> 100 µM (inactive) | COc1ccc(C=NNC(=S)Nc2ccccc2[N+](=O)[O-])cc1O
> 100 µM (inactive) | Cc1cc(C)cc(Nc2nc(-c3ccc(O)cc3O)cs2)c1
6.98 µM | CCOc1ccc(Nc2nc(-c3ccc(O)c(O)c3)cs2)cc1
> 100 µM (inactive) | COc1cc(C(=O)NNC(=S)Nc2ccc(S(N)(=O)=O)cc2)cc(OC)c1OC
4.43 µM and 12 µM | Cc1c(Cl)cccc1Nc1nc(-c2ccc(O)c(O)c2)cs1
22.2 µM | O=[N+]([O-])c1ccccc1NC(=S)N/N=C/c1ccc(O)c(O)c1O
49 µM | NS(=O)(=O)c1ccc(Nc2nc(-c3ccc(O)cc3O)cs2)cc1
5.23 µM and 4.64 µM | COc1ccc(Cl)cc1Nc1nc(-c2ccc(O)c(O)c2)cs1
